{
  "source": "patent US20260294770A1",
  "about": "“FORMULATIONS OF NARINGENIN” (DEBUT BIOTECHNOLOGY, INC., priority 2023, published 2026)",
  "key": {"glutathione": {"system": "glutathione", "conditions": "consumed orally; cited from earlier work"}, "HSPA1A": {"system": "HSPA1A", "test": "Downregulation of gene expression and/or activity, 1% naringenin: HSPA1A", "from_the_text": "(§1) In certain embodiments, administration of a composition comprising naringenin leads to up-regulation of LCE5A, KRT77, ALOXE3, KRT1, HPGD, MUCL1, CASP14, WFDC12, KRT10, DNASE1L2, IL37, SERPINB12, HAL, UPK1A, CALML5, LCE2B, and/or MIR205. In certain embodiments, administration of a composition comprising naringenin leads to down-regulation of CCL11, CSF2, IL23A, IL11, BMP6, IL13RA2, C2CD4A, NR4A2, C2CD4B, FGF2, FARP4, GDF15, THBS1, HSPA1A, PTGS2, and/or DKK1. Tables 10 and 11 provide data for upregulation and downregulation respectively of certain genes after administration of compositions comprising 1% naringenin.\nHeat shock protein family A (Hsp70) member 1A (HSPA1A) plays a role in clearing of aged cells and/or senolytic effect. In certain embodiments, the administration of compositions comprising naringenin leads to downregulation of expression and/or activity of HSPA1A. […] In certain embodiments, this may also lead to anti-aging effect for the skin. In certain embodiments, the administration of composition comprising naringenin results in at least about 2 to about 10-fold downregulation of expression and/or activity of HSPA1A. In certain embodiments, the administration of composition comprising naringenin results in at least about five (5) fold downregulation of expression and/or activity of HSPA1A."}, "CASP14": {"system": "CASP14", "test": "Upregulation of gene expression and/or activity, 1% naringenin: CASP14", "from_the_text": "as §1\nCysteine-aspartic acid protease 14 (CASP14) plays a role in keratinocyte terminal differentiation, which is important for the formation of the skin barrier. In certain embodiments, administration of compositions comprising naringenin leads to upregulation of CASP14. In certain embodiments, this upregulation of CASP14 leads to the improved skin barrier formation. In certain embodiments, the administration of composition comprising naringenin results in at least about 5 to about 20-fold upregulation of expression and/or activity of CASP14. In certain embodiments, the administration of composition comprising naringenin results in at least about ten (10) fold upregulation of expression and/or activity of CASP14."}, "MUCL1": {"system": "MUCL1", "test": "Upregulation of gene expression and/or activity, 1% naringenin: MUCL1", "from_the_text": "as §1"}, "WFDC12": {"system": "WFDC12", "test": "Upregulation of gene expression and/or activity, 1% naringenin: WFDC12", "from_the_text": "as §1"}, "[1]": {"target": "T1, human neutrophil elastase (Homo sapiens, UniProt P08246)", "T1 sequence (P08246 30-267)": "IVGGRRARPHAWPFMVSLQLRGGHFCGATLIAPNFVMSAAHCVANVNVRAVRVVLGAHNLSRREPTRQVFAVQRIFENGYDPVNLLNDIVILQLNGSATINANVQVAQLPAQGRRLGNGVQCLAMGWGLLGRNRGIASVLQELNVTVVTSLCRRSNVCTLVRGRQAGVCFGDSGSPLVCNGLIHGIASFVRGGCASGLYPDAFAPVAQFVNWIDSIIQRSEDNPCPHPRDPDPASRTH", "test": "Elastase enzyme inhibition", "assay_type": "biochemical", "procedure": "The assay was conducted to evaluate the elastase enzyme inhibition activity of compositions comprising naringenin.\nNeutrophil infiltration and neutrophil elastase are both increased in the skin in response to UV stress. […] Therefore, inhibition of this enzyme, particularly in combination with antioxidant activity, is effective in delaying wrinkle development and aiding in maintaining skin integrity. This assay is measures release of 4-nitroaniline from an Me-Suc-Ala-Ala-Pro-Val-pNA by human neutrophil elastase and can be quantified at 405 nm by comparing to solvent control."}, "BMP6": {"system": "BMP6", "test": "Downregulation of gene expression and/or activity, 1% naringenin: BMP6", "from_the_text": "as §1\nBone morphogenetic protein 6 (BMP6) plays a role in wound healing. The protein encoded by this gene is a member of the TGFβ superfamily. Bone morphogenetic proteins are known for their ability to induce the growth of bone and cartilage. BMP6 may induce all osteogenic markers in mesenchymal stem cells. In certain embodiments, the administration of compositions comprising naringenin leads to downregulation of expression and/or activity of BMP6. […] In certain embodiments, this may also lead to anti-aging effect for the skin. In certain embodiments, the administration of composition comprising naringenin results in at least about 2 to about 20-fold downregulation of expression and/or activity of BMP6. […]"}, "CALML5": {"system": "CALML5", "test": "Upregulation of gene expression and/or activity, 1% naringenin: CALML5", "from_the_text": "as §1\nCalmodulin like 5 (CALML5) plays a role in cell growth. The enzyme encoded by CALML5 is a novel calcium binding protein expressed in the epidermis and related to the calmodulin family of calcium binding proteins. It plays a key role in cell growth and proliferation, including playing a key role in terminal differentiation of keratinocytes. In certain embodiments, administration of compositions comprising naringenin leads to upregulation of CALML5, which leads to increase cell proliferation, including the cells in the skin and the underlying tissues. […] In certain embodiments, the administration of composition comprising naringenin results in at least about 2 to about 10-fold upregulation of expression and/or activity of CALML5. […]"}, "DNASE1L2": {"system": "DNASE1L2", "test": "Upregulation of gene expression and/or activity, 1% naringenin: DNASE1L2", "from_the_text": "as §1\nDeoxyribonuclease-1-like 2 (DNASE1L2) plays a role in recycling of dying cells. Hair, nails, and the cornified layer of the epidermis, i.e. the stratum corneum, consist of cornified keratinocytes, also known as corneocytes. The process of cornification involves the cross-linking of structural proteins and leads to the high mechanical stability of corneocytes which, along with the formation of stable desmosomal links between cells, is essential for the resistance of epidermal structures to stress from the environment DNASE1L2 is a keratinocyte-specific DNase. DNASE1L2 breakdown of the nucleus in skin appendages and distinct epithelia whereas cornification of the interfollicular epidermis. […]"}},
  "data": [
    {"smiles": "O=C1C[C@@H](c2ccc(O)cc2)Oc2cc(O)cc(O)c21", "note": "[naringenin, (2S)-5,7-Dihydroxy-2-(4-hydroxyphenyl)-2,3-dihydro-4H-1-benzopyran-4-one]", "values": [
      {"measurement": "Glutathione", "setting": "glutathione", "result": "increase"},
      {"measurement": "fold downregulation in expression and/or activity of HSPA1A", "setting": "HSPA1A", "result": "~6", "unit": "fold"},
      {"measurement": "Fold-increase (downregulation table) HSPA1A", "setting": "HSPA1A; negative = downregulation", "result": "−6", "unit": "fold"},
      {"measurement": "Fold-increase in expression and/or activity of CASP14", "setting": "CASP14", "result": "~11", "unit": "fold"},
      {"measurement": "Fold-increase in expression and/or activity of MUCL1", "setting": "MUCL1", "result": 11, "unit": "fold"},
      {"measurement": "Fold-increase in expression and/or activity of WFDC12", "setting": "WFDC12", "result": 11, "unit": "fold"},
      {"measurement": "Lowest concentration inhibiting elastase", "setting": "[1]", "result": "≤ 0.02", "unit": "% w/w"},
      {"measurement": "inhibition at 0.02 % strength", "setting": "[1]; 0.02 % w/w naringenin", "result": 1.05, "unit": "%"},
      {"measurement": "inhibition at 0.1 % strength", "setting": "[1]; 0.10 % w/w naringenin", "result": 15.5, "unit": "%"},
      {"measurement": "inhibition at 0.5 % strength", "setting": "[1]; 0.50 % w/w naringenin", "result": 84, "unit": "%"},
      {"measurement": "IC50 elastase inhibition", "setting": "[1]; role: inhibitor, substrate Me-Suc-Ala-Ala-Pro-Val-pNA, calculated", "result": 0.159, "unit": "% w/w"},
      {"measurement": "fold downregulation in expression and/or activity of BMP6", "setting": "BMP6", "result": "~11", "unit": "fold"},
      {"measurement": "Fold-increase (downregulation table) BMP6", "setting": "BMP6; negative = downregulation", "result": "−11", "unit": "fold"},
      {"measurement": "Fold-increase in expression and/or activity of CALML5", "setting": "CALML5", "result": "~7", "unit": "fold"},
      {"measurement": "Fold-increase in expression and/or activity of DNASE1L2", "setting": "DNASE1L2", "result": "~9", "unit": "fold"}
    ]}
  ]
}
